From US10544103B2, “5-HT2 antagonists” (ANAMAR AB, priority 2015, dated 2020) come the findings set out here.

Assay [1] deals with T1, 5-HT2B receptor (Homo sapiens, UniProt P41595).
T1 construct: host or cells: CHO-K1
In words: 5-HT2B receptor binding, 3H-LSD ligand displacement assay. The note with it: for inhibition at 0.1 µM: 0.1 uM compound; for inhibition at 1 µM: 1 uM compound. The procedure:
5-HT2B receptor binding (performed at Eurofins Panlabs Taiwan, Ltd.) to human receptor protein expressed in CHO-K1 cells was determined in a ligand displacement assay using ^3H-lysergic acid diethylamide (LSD) as radioligand and ketanserine as a standard reference compound. Data is presented as % displacement of radioligand at indicated compound concentrations, see Table 1 and Table 2.

In assay [2] the target is T1, 5-HT2B receptor. Briefly: 5-HT2B receptor antagonism, inhibition of 5-HT stimulated IP-1 accumulation (HTRF) in CHO-K1 cells. It is filed as cell-based. The note with it: % inhibition of 5-HT (5 nM) induced effect. The procedure: (§1) 5-HT2B receptor antagonism (performed at Eurofins Panlabs Taiwan, Ltd.) was determined in CHO-K1 cells expressing human receptor protein as inhibition of 5-HT (5 nM) stimulated IP-1 accumulation measured by HTRF quantitation. SB 206553 was used as a standard reference compound. The antagonistic response is expressed as % inhibition of the 5-HT induced effect.

Assay [3] deals with T1, 5-HT2B receptor. Briefly: 5-HT2B receptor agonism, IP-1 accumulation in CHO-K1 cells without prior 5-HT stimulation. It is filed as cell-based. The note with it: % of IP-1 accumulation induced by 5-HT (1 uM). The protocol:
as §1
5-HT2B receptor agonism (performed at Eurofins Panlabs Taiwan, Ltd.) was determined in the same model as described above in Ex. 117. without prior stimulation with 5-HT. The agonistic response is expressed as % of the IP-1 accumulation induced by 5-HT (1 uM) stimulation.

Assay [4] concerns TNF-α plasma levels. In words: Reduction of TNF-α plasma levels in LPS-induced acute inflammation in mice. It is filed as in vivo, mice (BALB/c). The note with it: for TNF-α: plasma 90 min after LPS. The procedure: Reduction of TNF-α plasma levels in the LPS-induced acute inflammation in mice was used to determine the in vivo anti-inflammatory properties of the compounds.
Mice (BALB/c, female, approx. 20 g, 8 mice/group) were treated with the test compound perorally (10 or 30 mg/kg in water) 30 min prior to LPS treatment (10 ug in saline, intraperitoneally, serotype 055:B5). Alternatively, the test compound was administered subcutaneously in the neck (10 or 30 mg/kg in 10% PEG400 in saline) 15 min prior to LPS treatment. Blood samples were collected 90 min after LPS treatment and plasma TNF-α concentrations were determined in duplicates by ELISA.

For assay [5], the system named is bleomycin-induced pulmonary fibrosis. Briefly: Bleomycin-induced pulmonary fibrosis model in mice. The note with it: 28 days. The assay is classed as in vivo, mice (C57BL/6). The protocol:
Pulmonary fibrosis was induced in female C57BL/6 mice by intratracheal instillation of bleomycin in saline (50 uL, 0.5 mg/mL). Treatment was initiated at the day of intratracheal instillation and continued to day 28. The mice (8 animals/group) were orally treated twice daily with 25 or 75 mg/kg (R)-3-(2-Hydroxyphenyl)-4-methyl-4,5-dihydro-1H-pyrazole-1-carboximidamide (Example 36, Compound 3) dissolved in ddH2O. Nintedanib at 30 mg/kg in ddH2O, p.o., twice daily, was used as a positive control. Vehicle-treated bleomycin-challenged mice and vehicle-treated non-fibrotic mice served as controls. The animals were sacrificed after 28 days and the fibrotic area of the lung was determined by histological evaluation of Sirius Red-stained sections according to standard protocol. The collagen content of lung tissue was measured using the hydroxyproline collagen assay and the number of myofibroblasts was quantified by staining for α-smooth muscle actin (α-SMA) in paraffin embedded sections.

For assay [6], the system named is Normal human lung fibroblasts (NHLF). Briefly: Collagen production in normal human lung fibroblasts (PIP ELISA). The assay is classed as cell-based. The note with it: 1 and 10 μM; stimulation with 5 ng/mL TGF-β1 and 5-HT; 48 hours. The protocol: Normal human lung fibroblasts (NHLF, Lonza) were cultured in FGM-2 full medium (+FBS) according to manufacturer's instructions. When confluent, cells were seeded onto 24-well tissue culture plates at 100.000 cells/well (4 wells per condition), until reaching confluence. Once cells were confluent they were serum starved overnight in serum free FGM-2 medium. After 16 hours the serum free medium was removed and cells were treated with (R)-3-(2-hydroxyphenyl)-4-methyl-4,5-dihydro-1H-pyrazole-1-carboximidamide (Example 36, Compound 3) at 1 and 10 μM (vehicle ddH2O). The cells were then stimulated with 5 ng/mL human recombinant TGF-β1 alone or in combination with 1 μM or 10 μM 5-HT. All stimuli were prepared in serum free FGM-2 media (1 mL volume/well). Unstimulated cells received serum free FGM-2 medium alone. After 48 hours the supernatants were collected and stored at −80° C. Collagen production was analyzed in supernatants using procollagen type I C-peptide (PIP) ELISA (Takara Bio # MK1010). Cell viability was tested using a LDH assay (Abcam # Ab102526).

T1 sequence (P41595 whole entry): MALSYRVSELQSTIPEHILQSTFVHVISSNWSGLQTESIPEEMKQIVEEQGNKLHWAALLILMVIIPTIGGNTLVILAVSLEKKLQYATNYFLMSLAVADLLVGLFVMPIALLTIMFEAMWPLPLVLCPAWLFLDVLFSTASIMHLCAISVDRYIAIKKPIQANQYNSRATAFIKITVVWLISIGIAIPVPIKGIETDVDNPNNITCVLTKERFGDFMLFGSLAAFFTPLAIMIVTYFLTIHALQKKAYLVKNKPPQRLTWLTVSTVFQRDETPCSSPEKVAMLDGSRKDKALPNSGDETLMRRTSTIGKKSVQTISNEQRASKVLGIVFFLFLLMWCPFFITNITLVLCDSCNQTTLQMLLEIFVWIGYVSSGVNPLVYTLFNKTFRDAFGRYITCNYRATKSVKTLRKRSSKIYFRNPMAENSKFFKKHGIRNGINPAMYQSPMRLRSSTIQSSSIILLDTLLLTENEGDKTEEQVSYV

The inhibition is the change of the read-out against control, counted positive when it falls. With `CC1CN(C(=N)N)N=C1c1ccccc1O.Cl` (centres unmarked) [Example 17, 3-(2-Hydroxyphenyl)-4-methyl-4,5-dihydro-1H-pyrazole-1-carboximidamide], the inhibition at 0.01 µM in assay [1] (0.01 uM compound) turned out to be 54%. In assay [1], the inhibition at 0.1 µM was found to be 91% and the inhibition at 1 µM was 100%. Besides, the inhibition at 10 µM in assay [1] (10 uM compound) worked out at 100%. In assay [2], the inhibition at 0.001 µM amounted to 31%, the inhibition at 0.01 µM was determined as 70%, the inhibition at 0.1 µM was 96% and the inhibition at 1 µM came to 100%. For the same compound, the inhibition at 10 µM in assay [2] came out at 103%. For the same compound, in assay [3], the activation at 0.001 µM was 1%, the activation at 0.01 µM is 3%, the activation at 0.1 µM turned out to be 7% and the activation at 1 µM was 2%. Besides, the activation at 10 µM in assay [3] was -2%. Moreover, in assay [4] (10 mg/kg p.o. (water)), the “TNF-α” value is recorded as 4139 pg/mL. Further, in assay [4] (10 mg/kg s.c. (PEG400/saline)), the “TNF-α” value was found to be 2708 pg/mL. Also, in assay [4] (30 mg/kg p.o. (water)), the “TNF-α” value is 4062 pg/mL. Moreover, the “TNF-α” value in assay [4] (30 mg/kg s.c. (PEG400/saline)) worked out at 1397 pg/mL. The “Effect on TNF-α plasma levels (in words)” value in assay [4] (p.o. administration) was “reduced TNF-α levels”. Moreover, the “Effect on TNF-α plasma levels (in words)” value in assay [4] (subcutaneous (s.c.) administration) is given as “dose-dependent effects”. Besides, the “Anti-inflammatory effect compared with the reference compound” value in assay [4] (versus RS127545 (so in the source)) was “equal or higher anti-inflammatory effects”.

Turning to `CC(C)c1cc(-c2ccc(F)c3ccccc23)nc(N)n1` [RS127445, reference compound], the “TNF-α” value in assay [4] (10 mg/kg s.c. (PEG400/saline)) is reported as 3215 pg/mL.

`N=C(NCc1ccccc1)N1CCC(c2ccccc2O)=N1` [Example 22, N-Benzyl-3-(2-hydroxyphenyl)-4,5-dihydro-1H-pyrazole-1-carboximidamide]: in assay [1], the inhibition at 0.1 µM was 89% and the inhibition at 1 µM came to 102%. In assay [2], the inhibition at 0.001 µM is 14%, the inhibition at 0.01 µM is 28%, the inhibition at 0.1 µM is 88% and the inhibition at 1 µM worked out at 108%. Besides, in assay [2], the inhibition at 10 µM turned out to be 110%. Moreover, in assay [3], the activation at 0.001 µM was -5%, the activation at 0.01 µM is -10%, the activation at 0.1 µM is -1% and the activation at 1 µM was -3%. The activation at 10 µM in assay [3] is -2%.

For `COC(=O)c1ccc2c(c1)NC(=O)/C2=C(\Nc1ccc(N(C)C(=O)CN2CCN(C)CC2)cc1)c1ccccc1` [Nintedanib, reference compound], in assay [5] (30 mg/kg bid p.o.), the “Fibrotic area (A)” value was “reduced the fibrotic area”, the “Hydroxyproline content (C)” value is recorded as “reduced the hydroxyproline content” and the “Myofibroblast differentiation (B)” value is reported as “inhibited myofibroblast differentiation”.

For `N=C(N)N1CCC(c2cccc3ccccc23)=N1` [Example 9, 3-(Naphthalen-1-yl)-4,5-dihydro-1H-pyrazole-1-carboximidamide], in assay [1], the inhibition at 0.1 µM worked out at 81% and the inhibition at 1 µM was found to be 99%. Moreover, in assay [2], the inhibition at 0.001 µM was 6%, the inhibition at 0.01 µM was 20%, the inhibition at 0.1 µM was found to be 76% and the inhibition at 1 µM came to 103%. Besides, the inhibition at 10 µM in assay [2] is 116%. Further, in assay [3], the activation at 0.001 µM was -3%, the activation at 0.01 µM is -8%, the activation at 0.1 µM was -8% and the activation at 1 µM is -13%. Moreover, in assay [3], the activation at 10 µM was -5%.

Regarding `Cl.N=C(N)N1CCC(c2ccccc2O)=N1` [Example 3, 3-(2-Hydroxyphenyl)-4,5-dihydro-1H-pyrazole-1-carboximidamide], in assay [2], the inhibition at 0.01 µM was found to be 14%, the inhibition at 0.1 µM was 38%, the inhibition at 1 µM is 96% and the inhibition at 10 µM is 103%. For the same compound, in assay [3], the activation at 0.01 µM is 1%, the activation at 0.1 µM is -2%, the activation at 1 µM was -2% and the activation at 10 µM was -7%. In addition, in assay [4] (10 mg/kg p.o. (water)), the “TNF-α” value is recorded as 5767 pg/mL. For the same compound, the “TNF-α” value in assay [4] (30 mg/kg p.o. (water)) was 3992 pg/mL. Further, in assay [4] (p.o. administration), the “Effect on TNF-α plasma levels (in words)” value is on record as “dose-dependently reduced TNF-α plasma levels”.

Regarding `C[C@@H]1CN(C(=N)N)N=C1c1ccccc1O` (single isomer, unassigned) [Example 36], the “Production of collagens (in words)” value in assay [6] is “significantly reduced the production of collagens”. The “Changes in any of the outcomes (fibrotic area, myofibroblasts, hydroxyproline)” value in assay [5] (25 mg/kg bid oral) was “No statistically significant changes”. In assay [5] (75 mg/kg bid oral), the “Fibrotic area (A)” value was “reduced the fibrotic area”, the “Hydroxyproline content (C)” value is “reduced the hydroxyproline content” and the “Myofibroblast differentiation (B)” value is “inhibited myofibroblast differentiation”.
